Test results published in PMC9655119, “Sustained Activation of CLR/RAMP Receptors by Gel-Forming Agonists” (International Journal of Molecular Sciences, 2022).

Assays:
[1] = Passage of peptide molecules through Centricon filters; format: physicochemical
Method: To evaluate whether gel formation reduces the movement of peptide molecules in solution, we used the Centricon® filters (Millipore) to separate samples and the carriers based on their molecular mass. The sample is monomeric peptide, and the carrier is the self-assembled gel. […] Ten minutes later, the solution was diluted to the 0.1% level, and aliquots of the samples were dispensed into separate Centricon columns (30,000 MW cutoff). The monomeric peptides and gel molecules were separated by centrifugation for 15 min (2000× g). The level of peptide in the elutes was determined by specific EIAs (Phoenix Pharmaceuticals Inc., Burlingame, CA, USA).

[2] = Microrheology viscosity assay (Rheosense viscometer); format: physicochemical; conditions: 5% peptide solution in 5% glucose
Method: We initially determined the gel-forming capability of peptides qualitatively based on a visual examination of the gel solution using a tube-tapping method. Once we have a rough estimate of the gel-forming capability, we quantitatively determine the viscosity of select peptides using a Rheosense viscometer (Rheosense Inc.; http://www.rheosense.com, accessed on 1 December 2019). In the visual assay, aliquots of peptides were dissolved in an aqueous solution (i.e., de-ionized water, saline, or 5% glucose solution). The peptide that dissolves instantly and stays as a clear solution without obvious macroscopic change in viscosity at 20 min after mixing was considered soluble. If macroscopic particles of peptides remained in the solution for 20 min after mixing, the peptide was considered insoluble. […] In addition, we quantitatively determined the viscosity of Analog C-6 and control peptides using a viscometer. The Rheosense microrheology viscometer uses a “chip” flow channel to quantify the viscosity of a solution as small as 50 μL. After loading the aqueous solution, the sample was injected through the flow channel with multiple pressure sensors, and the rheological properties were determined based on the standard principles of rheometry.

human CLR/RAMP1 = biological target: T1, human CLR/RAMP1 (Homo sapiens, UniProt O60894+Q16602); assay: CLR/RAMP1 receptor-activation assay (DiscoverX cAMP Hunter, HitHunter cAMP XS+); format: cell-based
T1 construct: host or cells: 1321N1 cells (cAMP Hunter cell line)
Method: (§1) The bioactivity of peptide analogs was studied using CLR/RAMP1, CLR/RAMP2, and CLR/RAMP3 assays by DiscoveRx (Fremont, CA, USA) in cells that stably express human CLR/RAMP1 (1321N1 cells), CLR/RAMP2 (CHO-K1 cells), or CLR/RAMP3 (CHO-K1 cells). The dose-dependent stimulatory effect of agonists was studied in duplicate, at 10 different concentrations. Determination of the half-maximal effective concentration (EC50) was performed using a 10-point dose-response curves. The starting concentration was 1.0 μM, and it was serially diluted 3-fold, in DMSO.
Cells were seeded in a total volume of 20 μL into 384-well microplates, and the activity was determined using the DiscoverX HitHunter cAMP XS + assay. Before the assay, media was aspirated from cells and replaced with 15 μL 2:1 HBSS/10 mM Hepes: cAMP XS + Ab reagent. Intermediate dilution of samples was performed to generate 4X sample in assay buffer, and 5 μL of the 4X sample was added to cells and incubated at 37°C. Vehicle concentration was 1%.
The chemiluminescent signal was read with a PerkinElmer instrument.

[3] = Release of Analog C-6 from the gel solution in vivo (single-dose pharmacokinetics); design: species or system Sprague–Dawley rats; conditions: plasma
Method: Single-dose pharmacokinetics of the Analog C-6 gel solution was investigated in male Sprague–Dawley rats. Rats received a gel solution via the subcutaneous route, and blood samples were collected at pre-dose, 8 h, 1, 2, 4, and 8 days via a catheter that had been cannulated to the jugular vein. Plasma was obtained by centrifugation, and the peptide level in samples was determined by specific ADM EIA (Phoenix Pharmaceuticals Inc.).

human CLR/RAMP2 = biological target: T2, human CLR/RAMP2 (Homo sapiens, UniProt O60895+Q16602); assay: CLR/RAMP2 receptor-activation assay (PathHunter β-Arrestin); format: cell-based
T2 construct: host or cells: CHO-K1 cells (PathHunter β-Arrestin cell line)
Method: as §1
In this assay, the CLR was fused in frame with a small enzyme donor fragment ProLink™ (PK). The receptor was co-expressed with a fusion protein of β-arrestin and an N-terminal deletion mutant of β-galactosidase (i.e., enzyme acceptor). Activation of the CLR/RAMP2 receptor stimulated the binding of β-arrestin to the PK-tagged receptor and led to an increase in enzyme activities which can then be measured with the PathHunter detection reagents. PathHunter cell lines were seeded in a total volume of 20 μL into 384-well microplates and incubated at 37 °C prior to the assay. Intermediate dilution of samples was performed to generate 5X samples in the assay buffer. A 5 μL aliquot of 5X sample was added to cells and incubated at 37 °C for 90 min. Vehicle concentration was 1%.

T2 sequence (Q16602 23-461): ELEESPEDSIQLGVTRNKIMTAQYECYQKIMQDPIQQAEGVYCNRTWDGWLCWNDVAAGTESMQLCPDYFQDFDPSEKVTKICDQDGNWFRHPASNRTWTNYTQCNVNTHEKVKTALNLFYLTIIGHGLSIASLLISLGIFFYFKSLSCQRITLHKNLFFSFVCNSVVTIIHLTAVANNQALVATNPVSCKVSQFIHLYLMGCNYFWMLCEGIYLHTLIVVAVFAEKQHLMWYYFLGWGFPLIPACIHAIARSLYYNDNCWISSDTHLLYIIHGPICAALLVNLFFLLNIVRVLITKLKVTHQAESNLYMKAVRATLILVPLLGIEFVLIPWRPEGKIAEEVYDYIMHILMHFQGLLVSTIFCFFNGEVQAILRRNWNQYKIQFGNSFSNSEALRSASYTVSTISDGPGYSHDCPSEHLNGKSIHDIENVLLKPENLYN
T2 sequence (O60895 43-175): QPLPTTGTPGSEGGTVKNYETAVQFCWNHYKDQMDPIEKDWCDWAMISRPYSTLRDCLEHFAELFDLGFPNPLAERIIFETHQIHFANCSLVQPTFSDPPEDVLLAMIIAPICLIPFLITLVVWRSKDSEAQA
T1 sequence (Q16602 23-461): as the sequence (Q16602 23-461) above
T1 sequence (O60894 27-148): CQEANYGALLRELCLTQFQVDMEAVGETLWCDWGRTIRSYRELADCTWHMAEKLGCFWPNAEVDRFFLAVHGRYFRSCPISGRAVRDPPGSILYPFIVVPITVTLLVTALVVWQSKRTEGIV

viscosity compared with water [2] | EC50 (human CLR/RAMP1; 1321N1 cells stably expressing human CLR/RAMP1, cAMP read-out, 10-point dose-response in duplicate, start 1.0 μM, 3-fold serial dilution in DMSO) | Emax (human CLR/RAMP1; percentage of positive control β-CGRP, read-out: CLR/RAMP1 Max Activity) | time during which circulating level was significantly increased ([3]; male Sprague–Dawley rats, s.c., 32 mg in 16% gel solution, ADM EIA, n = 3) | Tmax ([3]; male, Sprague-Dawley, rat, sc, 32 mg, read-out: time of peak circulating peptide level) | solubility in saline solution ([1]; 0.1% peptide in saline) | EC50 (human CLR/RAMP2; CHO-K1 cells stably expressing human CLR/RAMP2, β-arrestin recruitment, 90 min at 37 °C, 10-point dose-response in duplicate, start 1.0 μM, 3-fold dilution in DMSO) | Emax (human CLR/RAMP2; […], percentage of positive control ADM1-52, read-out: CLR/RAMP2 Max Activity) | Compound | peptide level in Centricon elute, 5% and 20% solution groups versus 0.1% solution ([1]; Centricon 30,000 MW cutoff, 2000× g 15 min, 5% glucose, samples diluted to 0.1% after 10 min, CGRP or ADM EIA, triplicate)
significantly higher than that of water |  |  |  |  |  |  |  | adrenomedullin [ADM, reference compound] | lower than that of the 0.1% solution group
 | 24 nM | 78% | 8 to 48 h | 8 h | low solubility | 2.8 nM | 87% | CCCCCCCCCCCCCCCC(=O)NCCCC[C@H](N)C(=O)NCC(=O)N[C@H]1CSSC[C@@H](C(=O)N[C@H](C(=O)N[C@H](C(=O)N[C@@H](CCC(N)=O)C(=O)N[C@@H](CCCCN)C(=O)N[C@@H](CC(C)C)C(=O)N[C@@H](C)C(=O)N[C@@H](Cc2c[nH]cn2)C(=O)N[C@@H](CCC(N)=O)C(=O)N[C@H](C(=O)N[C@@H](Cc2ccc(O)cc2)C(=O)N[C@@H](CCC(N)=O)C(=O)N[C@@H](Cc2ccccc2)C(=O)N[C@H](C(=O)N[C@@H](CC(=O)O)C(=O)N[C@@H](CCCCN)C(=O)N[C@@H](CC(=O)O)C(=O)N[C@@H](CCCCN)C(=O)N[C@@H](CC(=O)O)C(=O)N[C@@H](CC(N)=O)C(=O)N[C@H](C(=O)N[C@@H](C)C(=O)N2CCC[C@H]2C(=O)N[C@@H](CCCNC(=N)N)C(=O)N[C@@H](CO)C(=O)N[C@@H](CCCCN)C(=O)N[C@H](C(=O)N[C@@H](CO)C(=O)N2CCC[C@H]2C(=O)N[C@@H](CCC(N)=O)C(=O)NCC(=O)N[C@@H](Cc2ccc(O)cc2)C(N)=O)[C@@H](C)CC)C(C)C)[C@@H](C)O)[C@@H](C)CC)C(C)C)[C@@H](C)O)NC(=O)[C@H]([C@@H](C)O)NC(=O)CNC(=O)[C@H](Cc2ccccc2)NC(=O)[C@H](CCCNC(=N)N)NC1=O [Analog C-6] | 
